{
  "source": "paper PMC5601486",
  "about": "“Identification of 4-phenylquinolin-2(1H)-one as a specific allosteric inhibitor of Akt” (Scientific Reports, 2017)",
  "key": {"[1]": {"tested_on": "Akt S473 phosphorylation", "assay": "Western blot analysis of S473 phosphorylation", "type": "cell-based", "conditions": "Mus musculus, N2a, 0.5 h; Neuro 2A cells, IGF stimulation 30 min; read-out: IC50 of IGF-induced S473 phosphorylation", "description": "(§1) Neuro 2A cells were seeded in 12-well plates in DMEM containing 5% FBS for 24 hr.\n(§2) After overnight serum starvation (in 0% FBS DMEM), cells were incubated for 30 min at 37 °C with G7 or LY294002 or Torin 1 (Sigma Aldrich) at various concentrations, or DMSO control. IGF-1 was added to each well at a final concentration of 100 ng/mL. After 30-min incubation cells were washed with cold PBS and lysed with 50 µL lysis buffer containing 1% Triton X-100 and protease/phosphatase inhibitors (Cell Signaling Technology) or RIPA buffer (Santa Cruz Biotech). Samples were electrophoresed in 4–12% Bis-Tris gels (Life Technologies) at 150 V using MOPS SDS running buffer. Proteins were transferred electrophoretically to a PVDF or nitrocellulose membrane. For detection of cleaved […]\n(§3) caspase 3 a Trans-Blot Turbo Transfer System (Bio-Rad, 25 V for 25 min) with PVDF membrane were used. […]\n(§4) anti- GAPDH (14C10) antibody (#2118) (all antibodies were from Cell Signaling Technology unless indicated, 1:1000 dilution was used) at 4°C overnight, washed three times with TBS-T, then incubated with peroxidase-conjugated secondary antibody (Sigma-Aldrich) for 1 hr at room temperature. […] Band intensity was quantitated using Kodak 1D imaging analysis software. […]"}, "[2]": {"tested_on": "PKC", "assay": "Western blot of PKC phosphorylation", "type": "cell-based, Mouse", "conditions": "Neuro 2A cells", "description": "as §1, §2, §3, §4"}, "[3]": {"tested_on": "Neuro 2A cells", "assay": "MTS cell proliferation assay", "type": "cell-based, Mouse", "conditions": "1 day", "description": "Neuro 2A cells or NIH/3T3 cells (ATCC) were seeded at various confluency in a 96-well plate in 100 µL DMEM containing 5% FBS or 10% FBS with 1% penicillin streptomucin, respectively, at 37 °C in a 5% CO2 and 95% humidity incubator for 18 hr. To each well 1 µL inhibitor with various concentrations or DMSO was added. The final concentrations of the tested inhibitors were 0, 5, 10, 20, 40 and 80 µM for G7 and LY, and 0, 5, 10, 20, 40 and 80 nM for Torin1, based on their respective IC50 values (~µM for G7 and LY and ~ nM for Torin 1). After 24 hr, 20 µL of CellTiter 96® AQueous One Solution Reagent (Promega) were added. The plate was placed in the incubator for 2 h and absorbance at 490 nm was measured with a Synergy HT Microplate Reader (Bio-Tek)."}, "[4]": {"tested_on": "AKT3", "assay": "KINOMEscan", "conditions": "50000 nM", "method": "KINOMEscan™ selectivity screen\n(§5) The assay was perfor med at DiscoveRx Corporation according the methods published previously5. Briefly, Kinase-tagged T7 phage strains were grown in parallel in an E. coli host derived from the BL21 strain. E. coli were grown to log-phase and infected with T7 phage from a frozen stock and incubated with shaking at 32°C until lysis (90-150 minutes). The kinases were produced in HEK-293 cells and subsequently tagged with DNA for qPCR detection. Streptavidin-coated magnetic beads were treated with biotinylated small molecule ligands to generate affinity resins for kinase\n(§6) inhibitor or DMSO control was performed in polypropylene 384-well plates for 1 hr at room temperature. After wash with PBS buffer containing 0.05% Tween 20, the beads were incubated in elution buffer (PBS containing 0.05 % Tween 20 and 0.5 μM non-biotinylated affinity ligand) for 30 minutes at room temperature. The kinase concentration in the eluates was measured by qPCR."}, "[5]": {"tested_on": "BMPR1A", "assay": "KINOMEscan", "conditions": "50000 nM", "method": "KINOMEscan™ selectivity screen\nas §5, §6"}, "[6]": {"tested_on": "GCN2(Kin.Dom.2,S808G)", "assay": "KINOMEscan", "conditions": "50000 nM", "method": "KINOMEscan™ selectivity screen\nas §5, §6"}, "[7]": {"tested_on": "TNK2", "assay": "KINOMEscan", "conditions": "50000 nM", "method": "KINOMEscan™ selectivity screen\nas §5, §6"}, "[8]": {"tested_on": "DCAMKL2", "assay": "KINOMEscan", "conditions": "50000 nM", "method": "KINOMEscan™ selectivity screen\nas §5, §6"}, "[9]": {"tested_on": "LKB1", "assay": "KINOMEscan", "conditions": "50000 nM", "method": "KINOMEscan™ selectivity screen\n(§7) The assay was perfor med at DiscoveRx Corporation according the methods published previously5. […] The kinases were produced in HEK-293 cells and subsequently tagged with DNA for qPCR detection. Streptavidin-coated magnetic beads were treated with biotinylated small molecule ligands to generate affinity resins for kinase\nas §6"}, "[10]": {"tested_on": "SYK", "assay": "KINOMEscan", "conditions": "50000 nM", "method": "KINOMEscan™ selectivity screen\nas §5, §6"}, "[11]": {"tested_on": "ABL2", "assay": "KINOMEscan", "conditions": "50000 nM", "method": "KINOMEscan™ selectivity screen\nas §5, §6"}, "[12]": {"tested_on": "RPS6KA5(Kin.Dom.2-C-terminal)", "assay": "KINOMEscan", "conditions": "50000 nM", "method": "KINOMEscan™ selectivity screen\n(§8) Briefly, Kinase-tagged T7 phage strains were grown in parallel in an E. coli host derived from the BL21 strain. E. coli were grown to log-phase and infected with T7 phage from a frozen stock and incubated with shaking at 32°C until lysis (90-150 minutes). The kinases were produced in HEK-293 cells and subsequently tagged with DNA for qPCR detection.\n(§9) After wash with PBS buffer containing 0.05% Tween 20, the beads were incubated in elution buffer (PBS containing 0.05 % Tween 20 and 0.5 μM non-biotinylated affinity ligand) for 30 minutes at room temperature. The kinase concentration in the eluates was measured by qPCR."}, "[13]": {"tested_on": "TSSK1B", "assay": "KINOMEscan", "conditions": "50000 nM", "method": "KINOMEscan™ selectivity screen\nas §8, §9"}, "[14]": {"tested_on": "ERK3", "assay": "KINOMEscan", "conditions": "50000 nM", "method": "KINOMEscan™ selectivity screen\n(§10) Briefly, Kinase-tagged T7 phage strains were grown in parallel in an E. coli host derived from the BL21 strain. E. coli were grown to log-phase and infected with T7 phage from a frozen stock and incubated with shaking at 32°C until lysis (90-150 minutes). The kinases were produced in HEK-293 cells and subsequently tagged with DNA for qPCR detection. Streptavidin-coated magnetic beads were treated with biotinylated small molecule ligands to generate affinity resins for kinase\nas §6"}, "[15]": {"tested_on": "DCAMKL3", "assay": "KINOMEscan", "conditions": "50000 nM", "method": "KINOMEscan™ selectivity screen\nas §10, §6"}, "[16]": {"tested_on": "FRK", "assay": "KINOMEscan", "conditions": "50000 nM", "method": "KINOMEscan™ selectivity screen\nas §5, §6"}, "[17]": {"tested_on": "SRMS", "assay": "KINOMEscan", "conditions": "50000 nM", "method": "as §10, §6"}, "[18]": {"tested_on": "BMX", "assay": "KINOMEscan", "conditions": "50000 nM", "method": "KINOMEscan™ selectivity screen\nas §10, §6"}, "[19]": {"tested_on": "SBK1", "assay": "KINOMEscan", "conditions": "50000 nM", "method": "KINOMEscan™ selectivity screen\nas §5, §6"}, "[20]": {"tested_on": "ABL1-nonphosphorylated", "assay": "KINOMEscan", "conditions": "50000 nM", "method": "KINOMEscan™ selectivity screen\nas §5, §6"}, "[21]": {"tested_on": "MEK3", "assay": "KINOMEscan", "conditions": "50000 nM", "method": "KINOMEscan™ selectivity screen\nas §5, §6"}, "[22]": {"tested_on": "PRKCQ", "assay": "KINOMEscan", "conditions": "50000 nM", "method": "KINOMEscan™ selectivity screen\nas §5, §6"}, "[23]": {"tested_on": "RIPK4", "assay": "KINOMEscan", "conditions": "50000 nM", "method": "KINOMEscan™ selectivity screen\nas §5, §6"}, "[24]": {"tested_on": "BLK", "assay": "KINOMEscan", "conditions": "50000 nM", "method": "KINOMEscan™ selectivity screen\nas §10, §6"}, "[25]": {"tested_on": "IGF1R", "assay": "KINOMEscan", "conditions": "50000 nM", "method": "KINOMEscan™ selectivity screen\nas §7, §6"}, "[26]": {"tested_on": "TEC", "assay": "KINOMEscan", "conditions": "50000 nM", "method": "KINOMEscan™ selectivity screen\nas §10, §6"}, "[27]": {"tested_on": "YSK1", "assay": "KINOMEscan", "conditions": "50000 nM", "method": "KINOMEscan™ selectivity screen\nas §5, §6"}, "[28]": {"tested_on": "JNK2", "assay": "KINOMEscan", "conditions": "50000 nM", "method": "KINOMEscan™ selectivity screen\nas §5, §6"}, "[29]": {"tested_on": "MAP3K2", "assay": "KINOMEscan", "conditions": "50000 nM", "method": "KINOMEscan™ selectivity screen\nas §5, §6"}, "[30]": {"tested_on": "DYRK1A", "assay": "KINOMEscan", "conditions": "50000 nM", "method": "KINOMEscan™ selectivity screen\nas §5, §6"}, "[31]": {"tested_on": "CAMK1B", "assay": "KINOMEscan", "conditions": "50000 nM", "method": "KINOMEscan™ selectivity screen\nas §7, §6"}, "[32]": {"tested_on": "KIT", "assay": "KINOMEscan", "conditions": "50000 nM", "method": "KINOMEscan™ selectivity screen\nas §10, §6"}},
  "data": [
    {"smiles": "Oc1cc(-c2ccccc2)c2ccccc2n1", "note": "[G7, 4-phenylquinolin-2(1H)-one]", "values": [
      {"measurement": "IC50", "setting": "[1]", "value": 18, "unit": "µM"},
      {"measurement": "phosphorylation (activation status) of PKC", "setting": "[2]", "value": "did not alter"},
      {"measurement": "proliferation of Neuro 2A cells", "setting": "[3]", "value": "inhibited the proliferation"},
      {"measurement": "Percent Control", "setting": "[4]", "value": 100, "unit": "%"},
      {"measurement": "Percent Control", "setting": "[5]", "value": 100, "unit": "%"},
      {"measurement": "Percent Control", "setting": "[6]", "value": 99, "unit": "%"},
      {"measurement": "Percent Control", "setting": "[7]", "value": 99, "unit": "%"},
      {"measurement": "Percent Control", "setting": "[8]", "value": 97, "unit": "%"},
      {"measurement": "Percent Control", "setting": "[9]", "value": 96, "unit": "%"},
      {"measurement": "Percent Control", "setting": "[10]", "value": 95, "unit": "%"},
      {"measurement": "Percent Control", "setting": "[11]", "value": 94, "unit": "%"},
      {"measurement": "Percent Control", "setting": "[12]", "value": 93, "unit": "%"},
      {"measurement": "Percent Control", "setting": "[13]", "value": 93, "unit": "%"},
      {"measurement": "Percent Control", "setting": "[14]", "value": 92, "unit": "%"},
      {"measurement": "Percent Control", "setting": "[15]", "value": 91, "unit": "%"},
      {"measurement": "Percent Control", "setting": "[16]", "value": 89, "unit": "%"},
      {"measurement": "Percent Control", "setting": "[17]", "value": 88, "unit": "%"},
      {"measurement": "Percent Control", "setting": "[18]", "value": 86, "unit": "%"},
      {"measurement": "Percent Control", "setting": "[19]", "value": 86, "unit": "%"},
      {"measurement": "Percent Control", "setting": "[20]", "value": 81, "unit": "%"},
      {"measurement": "Percent Control", "setting": "[21]", "value": 81, "unit": "%"},
      {"measurement": "Percent Control", "setting": "[22]", "value": 81, "unit": "%"},
      {"measurement": "Percent Control", "setting": "[23]", "value": 80, "unit": "%"},
      {"measurement": "Percent Control", "setting": "[24]", "value": 79, "unit": "%"},
      {"measurement": "Percent Control", "setting": "[25]", "value": 76, "unit": "%"},
      {"measurement": "Percent Control", "setting": "[26]", "value": 71, "unit": "%"},
      {"measurement": "Percent Control", "setting": "[27]", "value": 70, "unit": "%"},
      {"measurement": "Percent Control", "setting": "[28]", "value": 68, "unit": "%"},
      {"measurement": "Percent Control", "setting": "[29]", "value": 63, "unit": "%"},
      {"measurement": "Percent Control", "setting": "[30]", "value": 54, "unit": "%"},
      {"measurement": "Percent Control", "setting": "[31]", "value": 52, "unit": "%"},
      {"measurement": "Percent Control", "setting": "[32]", "value": 26, "unit": "%"}
    ]}
  ]
}
